Experiments:
duck salad = assay: Test B flood test duck salad; type: in vivo, Heteranthera limosa
How it was run: (§1)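 Read-out is a visual response score from 0 (no effect) to 10 (complete control), assigned by comparison with untreated controls. Treatment was applied at the 2-leaf stage, and plants stayed in the greenhouse for twelve to sixteen days before scoring.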

morningglory = assay: Test B pre/postemergence morningglory; type: in vivo, Ipomoea hederacea
How it was run: (§2)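 Response is a visual 0-to-10 score relative to untreated plants, where 0 means no effect and 10 means complete control, taken twelve to sixteen days after application. Treatments went onto soil at planting and onto foliage of 1- to 4-leaf plants, using a surfactant-containing non-phytotoxic solvent.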

rice = assay: Test B flood test rice; type: in vivo, Oryza sativa; details: for Plant response rating, Rice: Postemergence (flood test)
How it was run: as §1

giant foxtail = assay: Test B pre/postemergence giant foxtail; type: in vivo, Setaria faberii
How it was run: as §2

[1] = Postemergence, Rate 1000 g/ha, scale 0 to 10 (0 no effect, 10 complete control)
[2] = Rate 125 g/ha, Postemergence section (flood test species), scale 0 to 10, 0 no effect, 10 complete control
[3] = Rate 500 g/ha, Postemergence section of Table B, 0 to 10 scale (0 no effect, 10 complete control)
[4] = flood test, listed under Postemergence, Rate 250 g/ha, scale 0 to 10, 0 no effect, 10 complete control
[5] = Postemergence, Rate 250 g/ha, scale 0 to 10, 0 no effect, 10 complete control
[6] = Preemergence, Rate 125 g/ha, scale 0 to 10 (0 no effect, 10 complete control)
[7] = Preemergence, Rate 250 g/ha, scale of 0 to 10 where 0 is no effect and 10 is complete control
[8] = Preemergence, Rate 500 g/ha, scale 0 (no effect) to 10 (complete control)
[9] = Rate 125 g/ha, Postemergence, scale 0 to 10, 0 no effect, 10 complete control
[10] = Rate 500 g/ha, Postemergence, 0 to 10 scale (0 no effect, 10 complete control)
[11] = Rate 1000 g/ha, Preemergence, scale 0 to 10 (0 no effect, 10 complete control)
[12] = Postemergence, Rate 62 g/ha, scale 0 to 10, 0 is no effect, 10 is complete control
[13] = Preemergence, Rate 62 g/ha, scale 0 to 10, 0 is no effect, 10 is complete control
[14] = Postemergence (flood test species), Rate 125 g/ha, scale of 0 to 10 where 0 is no effect and 10 is complete control
[15] = Rate 62 g/ha, Postemergence section, flood test species, scale of 0 to 10 where 0 is no effect and 10 is complete control
[16] = Rate 500 g/ha, listed under Postemergence (flood test species), scale 0 to 10, 0 no effect, 10 complete control
[17] = Postemergence, Rate 125 g/ha, scale of 0 to 10 where 0 is no effect and 10 is complete control
[18] = Preemergence, Rate 62 g/ha, scale 0 to 10 (0 no effect, 10 complete control)
[19] = Preemergence, Rate 500 g/ha, scale 0 to 10 (0 no effect, 10 complete control)
[20] = Rate 62 g/ha, Postemergence, scale of 0 to 10 where 0 is no effect and 10 is complete control
[21] = Rate 500 g/ha, Postemergence, scale 0 to 10, 0 no effect, 10 complete control
[22] = Rate 250 g/ha, scale 0 to 10, 0 is no effect, 10 is complete control
[23] = Rate 31 g/ha, Pre-emergence section (flood test species), scale 0 to 10
[24] = Rate 62 g/ha, headed Pre-emergence (flood test species), scale 0 to 10 (0 no effect, 10 complete control)
[25] = Rate 125 g/ha, Pre-emergence, flood test species, scale 0 to 10 where 0 is no effect and 10 is complete control
[26] = Rate 250 g/ha, Pre-emergence, flood-test species, scale 0 to 10, 0 is no effect, 10 is complete control
[27] = Preemergence, Rate 31 g/ha, visual rating, scale 0 to 10 (0 no effect, 10 complete control)
[28] = Preemergence, Rate 62 g/ha, scale of 0 to 10 where 0 is no effect and 10 is complete control
[29] = Rate 31 g/ha, Postemergence, scale 0 to 10
[30] = Rate 125 g/ha, Postemergence, scale 0 to 10
[31] = Rate 125 g/ha, Preemergence, scale of 0 to 10 where 0 is no effect and 10 is complete control
[32] = Rate 62 g/ha, flood test species, Pre-emergence, visual evaluation after twelve to sixteen days
[33] = Rate 125 g/ha, under heading Pre-emergence, flood test species, visual evaluation after twelve to sixteen days
[34] = Rate 250 g/ha, Pre-emergence (flood test species), scale 0 to 10, 0 is no effect, 10 is complete control
[35] = Rate 500 g/ha, Pre-emergence section of Table B, 0 to 10 scale (0 no effect, 10 complete control)
[36] = Postemergence, Rate 62 g/ha, scale of 0 to 10, 0 is no effect, 10 is complete control
[37] = Postemergence, Rate 125 g/ha, scale 0 to 10, 0 is no effect, 10 is complete control
[38] = Preemergence, Rate 125 g/ha, scale 0 to 10, 0 is no effect, 10 is complete control
[39] = Preemergence, Rate 500 g/ha, scale of 0 to 10 where 0 is no effect and 10 is complete control
[40] = Rate 250 g/ha, Postemergence, scale of 0 to 10 where 0 is no effect and 10 is complete control

CCN(CC)C(=O)n1oc(=O)n(-c2ccc(OC)cc2)c1=O [Compound 1]
7: Plant response rating, Giant foxtail (giant foxtail; [6])
9: Giant foxtail plant response rating (giant foxtail; [8]) | Plant response rating, Giant foxtail (giant foxtail; [11])
2: Giant foxtail plant response rating (giant foxtail; [5])
8: Giant foxtail plant response rating (giant foxtail; [1]) | Plant response rating, Giant foxtail (giant foxtail; [7]) | Giant foxtail plant response rating (giant foxtail; [10])
0: Ducksalad plant response rating (duck salad; [1]) | Ducksalad plant response rating (duck salad; [2]) | Ducksalad plant response rating (duck salad; [3]) | Ducksalad plant response rating (duck salad; [4]) | Morningglory plant response rating (morningglory; [5]) | Morningglory plant response rating (morningglory; [1]) | Plant response rating, Morningglory (morningglory; [6]) | Plant response rating, Morningglory (morningglory; [7]) | Morningglory plant response rating (morningglory; [8]) | Morningglory plant response rating (morningglory; [9]) | Morningglory plant response rating (morningglory; [10]) | Plant response rating, Morningglory (morningglory; [11]) | Rice plant response rating (rice; [1]) | Rice plant response rating (rice; [2]) | Rice plant response rating (rice; [3]) | Rice plant response rating (rice; [4]) | Giant foxtail plant response rating (giant foxtail; [9])

CC(C)Oc1cc(-n2c(=O)on(C(=O)N(c3ccc(F)cc3)C(C)C)c2=O)c(Cl)cc1Cl [Compound 43]
4: Morningglory plant response rating (morningglory; [10])
3: Morningglory plant response rating (morningglory; [5]) | Morningglory plant response rating (morningglory; [9])
2: Morningglory plant response rating (morningglory; [12])
0: Ducksalad plant response rating (duck salad; [12]) | Ducksalad plant response rating (duck salad; [2]) | Ducksalad plant response rating (duck salad; [3]) | Ducksalad plant response rating (duck salad; [4]) | Plant response rating, Morningglory (morningglory; [13]) | Plant response rating, Morningglory (morningglory; [6]) | Plant response rating, Morningglory (morningglory; [7]) | Morningglory plant response rating (morningglory; [8]) | Rice plant response rating (rice; [12]) | Rice plant response rating (rice; [2]) | Rice plant response rating (rice; [3]) | Rice plant response rating (rice; [4]) | Giant foxtail plant response rating (giant foxtail; [12]) | Giant foxtail plant response rating (giant foxtail; [5]) | Plant response rating, Giant foxtail (giant foxtail; [13]) | Plant response rating, Giant foxtail (giant foxtail; [6]) | Plant response rating, Giant foxtail (giant foxtail; [7]) | Giant foxtail plant response rating (giant foxtail; [8]) | Giant foxtail plant response rating (giant foxtail; [9]) | Giant foxtail plant response rating (giant foxtail; [10])

Cc1nn(C)c(C)c1-n1c(=O)on(C(=O)N(c2ccccc2)C(C)C)c1=O [Compound 120]
9: Plant response rating, Giant foxtail (giant foxtail; [6]) | Plant response rating, Giant foxtail (giant foxtail; [7])
7: Morningglory plant response rating (morningglory; [17])
0: Ducksalad plant response rating (duck salad; [14]) | Ducksalad plant response rating (duck salad; [15]) | Ducksalad plant response rating (duck salad; [16]) | Ducksalad plant response rating (duck salad; [4]) | Morningglory plant response rating (morningglory; [18]) | Plant response rating, Morningglory (morningglory; [6]) | Plant response rating, Morningglory (morningglory; [7]) | Morningglory plant response rating (morningglory; [19]) | Rice plant response rating (rice; [14]) | Rice plant response rating (rice; [15])
8: Morningglory plant response rating (morningglory; [5]) | Morningglory plant response rating (morningglory; [21]) | Giant foxtail plant response rating (giant foxtail; [5]) | Giant foxtail plant response rating (giant foxtail; [18]) | Giant foxtail plant response rating (giant foxtail; [21])
2: Plant response rating, Rice (rice; [22])
3: Rice plant response rating (rice; [16]) | Giant foxtail plant response rating (giant foxtail; [20])
4: Morningglory plant response rating (morningglory; [20])
10: Giant foxtail plant response rating (giant foxtail; [19])
6: Giant foxtail plant response rating (giant foxtail; [17])

CCN(CC)C(=O)n1oc(=O)n(-c2cccc3c2CCCC3)c1=O [Compound 89]
0: Ducksalad plant response rating (duck salad; [14]) | Ducksalad plant response rating (duck salad; [12]) | Ducksalad plant response rating (duck salad; [16]) | Ducksalad plant response rating (duck salad; [4]) | Morningglory plant response rating (morningglory; [12]) | Morningglory plant response rating (morningglory; [17]) | Morningglory plant response rating (morningglory; [5]) | Morningglory plant response rating (morningglory; [18]) | Plant response rating, Morningglory (morningglory; [6]) | Plant response rating, Morningglory (morningglory; [7]) | Morningglory plant response rating (morningglory; [8]) | Rice plant response rating (rice; [14]) | Rice plant response rating (rice; [12]) | Plant response rating, Rice (rice; [22]) | Rice plant response rating (rice; [16]) | Giant foxtail plant response rating (giant foxtail; [12]) | Giant foxtail plant response rating (giant foxtail; [17]) | Giant foxtail plant response rating (giant foxtail; [5]) | Giant foxtail plant response rating (giant foxtail; [18]) | Plant response rating, Giant foxtail (giant foxtail; [6]) | Plant response rating, Giant foxtail (giant foxtail; [7])
2: Morningglory plant response rating (morningglory; [21]) | Giant foxtail plant response rating (giant foxtail; [8]) | Giant foxtail plant response rating (giant foxtail; [21])

CCCCn1c(=O)on(C(=O)N(c2ccc(F)cc2)C(C)C)c1=O [Compound 221]
0: Ducksalad plant response rating (duck salad; [23]) | Ducksalad plant response rating (duck salad; [24]) | Ducksalad plant response rating (duck salad; [25]) | Ducksalad plant response rating (duck salad; [26]) | Morningglory plant response rating (morningglory; [27]) | Morningglory plant response rating (morningglory; [28]) | Morningglory plant response rating (morningglory; [7]) | Morningglory plant response rating (morningglory; [29]) | Morningglory plant response rating (morningglory; [20]) | Morningglory plant response rating (morningglory; [30]) | Morningglory plant response rating (morningglory; [31]) | Plant response rating (0 to 10; 0 is no effect, 10 is complete control), Morningglory (morningglory; Rate 250 g/ha, Postemergence) | Rice plant response rating (rice; [23]) | Rice plant response rating (rice; [24]) | Rice plant response rating (rice; [25]) | Rice plant response rating (rice; [26]) | Giant foxtail plant response rating (giant foxtail; [29])
2: Giant foxtail plant response rating (giant foxtail; [20])
7: Giant foxtail plant response rating (giant foxtail; [30]) | Plant response rating (0 to 10; 0 is no effect, 10 is complete control), Giant foxtail (giant foxtail; Rate 250 g/ha, Postemergence)
5: Giant foxtail plant response rating (giant foxtail; [27]) | Giant foxtail plant response rating (giant foxtail; [28])
10: Giant foxtail plant response rating (giant foxtail; [7])
9: Giant foxtail plant response rating (giant foxtail; [31])

CC(C)N(C(=O)n1oc(=O)n(CCC2OCCO2)c1=O)c1ccc(Cl)cc1 [Compound 531]
4: Morningglory plant response rating (morningglory; [37]) | Plant response rating, Morningglory (morningglory; [40])
10: Giant foxtail plant response rating (giant foxtail; [38]) | Giant foxtail plant response rating (0 to 10 scale) (giant foxtail; Preemergence, Rate 250 g/ha) | Giant foxtail plant response rating (giant foxtail; [39])
0: Plant response rating, Ducksalad (0 to 10 scale, 0 is no effect, 10 is complete control) (duck salad; [32]) | Ducksalad plant response rating (0 to 10 scale, 0 is no effect, 10 is complete control) (duck salad; [33]) | Ducksalad plant response rating (duck salad; [34]) | Ducksalad plant response rating (duck salad; [35]) | Plant response rating, Morningglory (morningglory; [28]) | Morningglory plant response rating (morningglory; [38]) | Morningglory plant response rating (0 to 10 scale) (morningglory; Preemergence, Rate 250 g/ha) | Morningglory plant response rating (morningglory; [39]) | Plant response rating, Rice (0 to 10 scale, 0 is no effect, 10 is complete control) (rice; [32]) | Rice plant response rating (0 to 10 scale, 0 is no effect, 10 is complete control) (rice; [33]) | Rice plant response rating (rice; [34]) | Rice plant response rating (rice; [35]) | Giant foxtail plant response rating (giant foxtail; [36])
9: Plant response rating, Giant foxtail (giant foxtail; Postemergence, Rate 500 g/ha, scale 0 to 10, 0 is no effect, 10 is complete control) | Plant response rating, Giant foxtail (giant foxtail; [28]) | Plant response rating, Giant foxtail (giant foxtail; [40])
2: Morningglory plant response rating (morningglory; [36])
8: Giant foxtail plant response rating (giant foxtail; [37])

From patent publication US6737383B1, “Herbicidal oxadiazolidines” (priority 1999, dated 2004)
